Results reported in PMC4645123, “Catestatin attenuates endoplasmic reticulum induced cell apoptosis by activation type 2 muscarinic acetylcholine receptor in cardiac ischemia/reperfusion” (Scientific Reports, 2015).

Columns and labels:
H9c2 cells = test: cAMP assay (cAMP-Glo Max Assay Kit); format: cell-based, rat; conditions: for effect of antagonist on CST lowering of isoproterenol-induced cAMP / effect of antagonist on CST lowering of forskolin-induced cAMP: AF-DX116 100 nM or himbacine 1 μM 20 min; for effect of antagonist on CST lowering of isoproterenol-induced cAMP: then CST 50 nM with isoproterenol 1 μM; for effect of antagonist alone on increased cAMP level with isoproterenol: AF-DX116 100 nM or himbacine 1 μM, 20 min pretreatment, isoproterenol 1 μM; for effect of antagonist on CST lowering of forskolin-induced cAMP: pirenzepine 1 μM, then CST 50 nM with forskolin 100 μM
Procedure: H9c2 cells were subcultured at 1 x 10^4 cells in 96-well plates. Cell were pretreated with […]
pirenzepine (1 μM), AF-DX116 (100 nM) or himbacine (1 μM) for 20 min, then incubated with CST (50 nM) or carbamoylcholine (100 μM) along with isoproterenol (1 μM) or forskolin (100 μM) for 30 min. Cell underwent cAMP assay with the cAMP-Glo Max Assay

M2 receptors = conditions: no reference given; cited from earlier work
Procedure: To investigate the interaction of CST with M2 receptor and as an endogenous ligand, we used radioactive isotope [^125-I]-labeled CST (0.4 μM) as a ligand, and N-methylscopolamine (NMS:0.045 nM to 0.3 μM) as a “cold” ligand were co-incubated with membrane protein (200 μg) in H9c2 cardiomyblasts.

isolated heart = test: Langendorff-perfused heart, global ischemia/reperfusion (I/R) with CST pretreatment; design: species or system rat; conditions: AF-DX116 pretreating for 20 min before CP, then I/R
Procedure: Rats fed a standard diet were heparinized (200 IU) and anesthetized with sodium pentobarbital (50 mg/kg, intraperitoneally). Hearts were excised and rapidly moved to a Langendorff perfusion system as described. After 30-min stabilization, hearts underwent 30-min normoxia, zero-flow global ischemia for 30 min, followed by 60-min reperfusion (I/R group). For the CP group, CST (100 nM) was infused for 15 min before ischemia (Fig. 1A). Cardiac function including left ventricular end diastolic pressure (LVEDP), LV systolic pressure (LVSP), and maximal and minimal LV pressure development (±dp/dtmax) were recorded. […] Images in each slice were analyzed by image pro plus software. The volume of infarcted tissue (white) and the risk zone (total) was then calculated by each area […] slice thickness and summing the results. The infarct size was expressed as the percentage of the risk zone[36]. Total 12 rats were sacrificed for the infarct size assay. Other rats, while finished I/R procedure, the apex of heart (about 100 mg) was quickly removed for western blot assay. The residual heart were cut about 5 mm high (from the site of apex), embedded with OCT then the frozen slice were prepared for apoptosis staining (Methods of western blot and apoptosis assay are available in the Supplementary methods online).

M2 receptor = conditions: read-out: KD values, binding ability to M2 receptor; cited from earlier work
Excerpt: Muscarinic receptor expression is abundant in ventricular muscle. Acetylcholine has protective role in cardiac I/R in vitro, but it is non-selective ligand and activates all cholinergic receptor subtype, which limited its application due to enormous side effects. Here we identified that CST is a selective ligand of M2 receptor with high affinity and its intracellular signal (cAMP, PI3 K and ERK1/2) is consistent with M2 receptor agonist.

H9c2 cardiomyoblasts = test: Apoptosis (cleaved caspase-3 staining) in cells under A/R or ER stress inducers; format: cell-based, rat; conditions: PD98059 20 μM or wortmannin 10 nM for 30 min, then CST 100 nM 30 min
Procedure: H9c2 rat cardiomyoblasts or neonatal cardiomyocytes were cultured in DMEM with 10% fetal bovine serum (FBS) and 1% penicillin/streptomycin at 37 °C, 5% CO2. Medium was changed to fresh medium (serum-free), and cells were cultured under anoxia with 95% N2 and 5% CO2 for 12 h at 37 °C, then incubated in a standard incubator for 4 h (A/R)[38]. […] page 1: Catestatin attenuates endoplasmic reticulum induced cell apoptosis by activation type 2 muscarinic acetylcholine receptor in cardiac ischemia/reperfusion Feng Liao1*, Yang Zheng1*, Junyan Cai1, Jinghui Fan1, Jing Wang1, Jichun Yang1,2, Qinghua Cui1,2, Guoheng Xu1, Chaoshu Tang1, Bin Geng1,2 1. Department of Physiology and Pathophysiology, School of Basic Medical Science, Peking University, P.R. China. 2. Center for Noncoding RNA Medicine, Peking University Health Science Center Online Methods 1. Western blot analysis Cultured H9c2 cells or rat hearts were lysed in RIPA lysis buffer (Cell Signaling). Proteins were denatured and 50 μg protein was loaded and isolated by SDS-PAGE electrophoresis, then transferred to a nitrocellulose membrane. […] The antigens were detected by the chemiluminescence method (ECL western blot detection kit, Applygen) with horseradish peroxidase-linked anti-mouse or anti-rabbit secondary antibody. […] Images were captured by fluorescence microscopy and apoptotic cells were analyzed by use of Image-Pro Plus. […]

[1] = system: ischemic-reperfused rat heart; conditions: peptide 100 nM treatment for 2 h during reperfusion phase; cited from earlier work
Procedure: Firstly we identified the endogenous CST reducing after I/R, but its precursor ChgA expression were no changes. That means increased enzymes (which catalyzed ChgA to generate CST) activity during I/R, although the enzymes were not identified until now. CST pretreatment compensated to endogenous CST decrease, thus lowered the infarct size and improved cardiac function in rats under I/R, which agreed with studies of CST post-conditioning[16][17]. However, human wild type CST (100 nM) treatment for 2 h during reperfusion phase increased, but Gly^364Ser variant peptide lowered infarct size; becaus ...

[2] = target: T1, M2 muscarinic acetylcholine receptor (Rattus norvegicus, UniProt P10980); test: radioligand competition binding
T1 chain: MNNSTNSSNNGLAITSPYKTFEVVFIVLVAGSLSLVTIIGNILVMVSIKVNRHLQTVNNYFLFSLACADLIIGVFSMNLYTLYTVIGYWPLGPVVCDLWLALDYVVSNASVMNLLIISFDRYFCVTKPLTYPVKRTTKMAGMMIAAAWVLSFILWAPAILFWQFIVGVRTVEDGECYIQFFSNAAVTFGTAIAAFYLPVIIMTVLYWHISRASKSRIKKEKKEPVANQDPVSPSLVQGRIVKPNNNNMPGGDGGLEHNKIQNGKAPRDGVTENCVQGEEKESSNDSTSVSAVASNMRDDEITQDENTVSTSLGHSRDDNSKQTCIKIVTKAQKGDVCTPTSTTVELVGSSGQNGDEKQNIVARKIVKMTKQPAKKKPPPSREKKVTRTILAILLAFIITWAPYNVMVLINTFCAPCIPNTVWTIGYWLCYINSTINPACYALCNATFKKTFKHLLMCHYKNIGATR

[3] = target: T1, M2 muscarinic acetylcholine receptor; test: radioligand binding (Scatchard)

CCN(CC)CC1CCCCN1CC(=O)N1c2ccccc2C(=O)Nc2cccnc21 (centres unmarked) [AF-DX116, Otenzepad]
effect of antagonist on CST lowering of isoproterenol-induced cAMP (H9c2 cells): blocked
effect of antagonist alone on increased cAMP level with isoproterenol (H9c2 cells): did not affect
effect of antagonist on CST lowering of forskolin-induced cAMP (H9c2 cells): blocked
IC50 (M2 receptors): 50 nM
effect on the protective effects of CP on infarct size, LDH leakage and cTNI level (isolated heart): blocked

COc1ccc2cc3[n+](cc2c1OC)CCc1cc2c(cc1-3)OCO2 [Berberine]
Kd (M2 receptor): 5400 nM

COc1cccc(-c2cc(=O)c3ccccc3o2)c1N [PD98059]
effect of inhibitor on CST protection on cell apoptosis (H9c2 cardiomyoblasts): reversed

C[N+](C)(C)CCOC(N)=O [carbamoylcholine]
cAMP level induced by isoproterenol (H9c2 cells; CST 50 nM or carbamoylcholine 100 μM with isoproterenol 1 μM for 30 min): lowered

C[C@@H]1OC(=O)[C@H]2C[C@H]3CCCC[C@@H]3[C@@H](/C=C/[C@H]3CCC[C@H](C)N3C)[C@@H]12 [himbacine]
effect of antagonist on CST lowering of isoproterenol-induced cAMP (H9c2 cells): blocked
effect of antagonist alone on increased cAMP level with isoproterenol (H9c2 cells): did not affect
effect of antagonist on CST lowering of forskolin-induced cAMP (H9c2 cells): blocked

COC[C@H]1OC(=O)c2coc3c2[C@@]1(C)C1=C(C3=O)[C@@H]2CCC(=O)[C@@]2(C)C[C@H]1OC(C)=O [wortmannin]
effect of inhibitor on CST protection on cell apoptosis (H9c2 cardiomyoblasts): reversed

Gly^364Ser variant peptide: Gly364Ser variant of human catestatin
infarct size [1]: lowered

SSMKLSFRARGYGFRGPGPQL (AF-DX116 50 nM)
IC50 [2]: 36 nM
Kd [3]: 45.8 nM

SSMKLSFRARGYGFRGPGPQL
IC50 [2]: 25.7 nM
Kd [3]: 18.6 nM
